Key:
[1] = tested on: U138 spheroids; assay: WNT pathway modulation in GBM U138 spheroids in hydrogel; assay type: cell-based
Method: For the WNT experiments, spheroids of GBM U 138(ATCC® HTB-16™) cell line were formed by hanging drop method in a 96 well plate by using 10,000 cells per drop of 20 μl, which were cultured for 72 hours in high glucose DMEM before being harvested to be setup in HyStem HP-Hydrogels. The spheroids were placed sandwiched between two layers of gel of total volume of 250 μl. The spheroids were then given different media compositions. Normal high glucose media being the control, the spheroids behaviour in WNT pathway agonist BIO and WNT pathway antagonist XAV939 were studied.
Experiments were conducted with single cell cancer spheroids with U138 cells. The WNT pathway was manipulated by adding either an agonist of the WNT pathway BIO or an antagonist of the WNT pathway XAV939 to the media.

[2] = tested on: liver organoids; assay: APAP toxicity testing and N-acetyl-L-cysteine intervention in liver organoids; assay type: cell-based, human; details: 10 mM APAP plus 20 mM NAC
[3] = tested on: cells on PEGSSDA hydrogel; assay: Proliferation on PEGSSDA hydrogel softened with NAC, MTS assay; assay type: cell-based; details: gels softened on day 4 with NAC 100 mmol for 60 minutes, vs control gels
Method: (§1) In a 96 well plate, we placed 10,000 cells on two sets of nine wells of 50 ul PEGSSDA hydrogel and the wells were filled with DMEM high glucose and cultured for a week. On day 4, one set of gels were softened using NAC 100 mmol for 60 minutes. Now proliferation of cells was compared between control gels and softened gels using MTS assays on day 7.

[4] = cited from earlier work
[5] = tested on: cells on S3 stiff hydrogel; assay: Proliferation on S3 stiff hydrogel softened with collagenase, MTS assay; assay type: cell-based; details: gels softened on day 4 with collagenase (1:10 dilution) for 10 minutes, vs control gels
Method: as §1, with “S3 stiff” for “PEGSSDA”, “collagenase (1:10 dilution)” for “NAC 100 mmol”, “10” for “60”, “contol” for “control”

With `O=C1Nc2cc(Br)ccc2/C1=C1/Nc2ccccc2/C1=N\O` [BIO] as the molecule, how does the “proliferation and migration in the spheroids” value ([1]; WNT pathway agonist added to the media) read?
The value was “shut down proliferation and migration”.

With `CC(=O)N[C@@H](CS)C(=O)O` [NAC, N-acetyl-L-cysteine] as the molecule, how does the detected urea production [2] read?
The detected urea production was “increased over time”.

And the detected albumin production ([2]; day 14)?
The detected albumin production was 98 ng/mL.

What about the “proliferation of cells (MTS, day 7)” value [3] of the same molecule?
Its value is “Reduced proliferation”.

With `Cn1nnc2c(C(N)=O)ncn2c1=O` [TMZ, temozolomide] as the molecule, how does the “concentrations in the cerebrospinal fluid (CSF) relative to plasma” value ([4]; CSF vs plasma) read?
The value was “approximately 20%”.

What about the “peak CSF concentrations” value ([4]; CSF) of the same molecule?
The value was 26 ± 4 µM.

Which “cancer cells' phenotype (morphology)” value ([1]; WNT pathway antagonist added to the media) does the source give for `Oc1nc(-c2ccc(C(F)(F)F)cc2)nc2c1CSCC2` [XAV939] here?
The value was “more epithelial appearance than a mesenchymal appearance”.

For collagenase, which “proliferation of cells (MTS, day 7)” value [5] is on record?
The value was “the same results were observed”.
